These results are taken from patent US20050130989A1, “N-arylheteroaromatic products compositions containing them and use thereof” (Aventis Pharma S. A., priority 2003, published 2005).

pIC50: −log10 of the molar value. Where a name gives a salt, the structure may show the parent alone. Bounds are passed on as bounds.

Assay [1] has as its target T1, tubulin (Sus scrofa, UniProt P02550+P02554).
T1 construct: Tubulin is purified from pig brain according to published methods; from tissue; host or cells: pig brain
As to the kind of experiment: Evaluation of the inhibition of tubulin polymerization (turbidimetry). The settings on record: tubulin 10 μm (1 mg/ml), 37° C., turbidity at 350 nm; concentration that inhibits the rate of polymerization by 50%; read-out: Inhibition of tubulin polymerization IC 50 (μm). The class given is biochemical, pig. In short, it runs like this:
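Pig brain tubulin (>95% pure), 10 μm in MES pH 6.8/30% glycerol buffer plus 1 mM GTP and 6 mM MgCl2, with compound at 0.5–10 μm added before polymerization. Polymerization triggered by shift from 6° C to 37° C, followed by turbidity at 350 nm; IC50 is 50% inhibition of polymerization rate.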

Assay [2] relates to HCT116 cells. In words: Inhibition of proliferation of the human colon tumor line HCT116 ([14C]-thymidine incorporation). The class given is cell-based. The settings on record: Homo sapiens, HCT-116, 48 h, 48 hours at 37° C., read-out: Inhibition of HCT116 proliferation IC 50 (μm). In short, it runs like this:
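HCT116 cells (5000/well) in DMEM with 10% fetal calf serum incubated 48 h at 37° C with [14C]-thymidine (0.1 μCi/well) and compound up to 10 μm (DMSO ≤0.5%). Incorporated radioactivity counted; IC50 is concentration cutting radioactivity by 50% versus untreated control.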

T1 sequence (P02550 whole entry): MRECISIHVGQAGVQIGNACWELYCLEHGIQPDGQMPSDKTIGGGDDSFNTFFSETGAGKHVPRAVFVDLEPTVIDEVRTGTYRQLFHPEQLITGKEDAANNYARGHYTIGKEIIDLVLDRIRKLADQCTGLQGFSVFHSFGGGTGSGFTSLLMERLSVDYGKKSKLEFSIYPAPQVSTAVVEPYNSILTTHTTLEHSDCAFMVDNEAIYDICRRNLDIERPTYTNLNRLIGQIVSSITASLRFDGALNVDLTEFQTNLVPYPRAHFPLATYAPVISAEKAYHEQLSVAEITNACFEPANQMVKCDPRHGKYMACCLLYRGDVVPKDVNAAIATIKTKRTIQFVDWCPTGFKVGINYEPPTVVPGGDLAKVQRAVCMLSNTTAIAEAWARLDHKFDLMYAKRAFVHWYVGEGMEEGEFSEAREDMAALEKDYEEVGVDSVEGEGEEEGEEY
T1 sequence (P02554 whole entry): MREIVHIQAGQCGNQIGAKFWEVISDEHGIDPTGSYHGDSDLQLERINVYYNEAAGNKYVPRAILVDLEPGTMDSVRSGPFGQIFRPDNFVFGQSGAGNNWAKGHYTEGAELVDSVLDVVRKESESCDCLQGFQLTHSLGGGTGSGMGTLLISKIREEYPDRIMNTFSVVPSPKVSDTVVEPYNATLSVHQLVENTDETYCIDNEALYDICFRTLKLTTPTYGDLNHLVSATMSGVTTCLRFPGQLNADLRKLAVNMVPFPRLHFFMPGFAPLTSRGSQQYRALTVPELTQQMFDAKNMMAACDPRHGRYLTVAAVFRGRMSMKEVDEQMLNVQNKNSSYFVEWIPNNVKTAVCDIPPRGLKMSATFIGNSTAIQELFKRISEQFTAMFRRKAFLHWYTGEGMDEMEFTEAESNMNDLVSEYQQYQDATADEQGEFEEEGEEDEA

For the molecule `Cc1cc(C(=O)N2CCN(c3cccc(Cl)c3)CC2)n(-c2ncccc2C#N)n1` [Example E38, 2-{5-[4-(3-Chlorophenyl)piperazine-1-carbonyl]-3-methylpyrazol-1-yl}nicotinonitrile], the pIC50 in assay [1] was 5.40; in assay [2], 7.71.
Turning to `Cc1cc(C(=O)N2CCN(c3cc(Cl)ccc3C)CC2)n(-c2ccccc2)n1` [3/33], the pIC50 in assay [1] is 5.52; in assay [2], 6.77.
The matching figures for `COc1cc(OC)cc(N2CCN(C(=O)c3cc(-c4ccsc4)nn3-c3ccccc3)CC2)c1` [Example E85, [4-(3,5-Dimethoxyphenyl)piperazin-1-yl][2-phenyl-5-(thiophen-3-yl)-2H-pyrazol-3-yl]methanone]: 5.86 and 6.74.
On the same counts, the results for `Cc1cc(C(=O)N2CCN(c3ccccc3C)CC2)n(-c2cccc(Cl)c2)n1` [3/67] are 5.57 and 6.90.
The matching figures for `Cc1cc(C(=O)N2CCN(c3cccc(C)c3C)CC2)n(-c2cccc(F)c2)n1` [3/94]: 6.10 and 7.49.
As to `Cc1cc(C(=O)N2CCN(c3cccc4ccccc34)CC2)n(-c2ccccc2F)n1` [3/143], the pIC50 in assay [1] is 5.60; in assay [2] it was 6.85.
The matching figures for `Cc1cc(C(=O)N2CCN(c3cccc(C(F)(F)F)c3)CC2)n(-c2cccc(F)c2)n1` [3/91]: 5.82 and 7.85.
`COc1cc(OC)cc(N2CCN(C(=O)c3cc(-c4ccoc4)nn3-c3ccccc3)CC2)c1` [Example E90, [4-(3,5-Dimethoxyphenyl)piperazin-1-yl][5-(furan-3-yl)-2-phenyl-2H-pyrazol-3-yl]methanone]: the results for the pIC50 in assay [1] and in assay [2] were 5.76 and 7.73, respectively.
The matching figures for `Cc1cc(C(=O)N2CCN(c3ccc(C)c(Cl)c3)CC2)n(-c2ccccc2)n1` [3/151]: 5.77 and 7.66.
Consider `Cc1cc(C(=O)N2CCN(c3cccc(S(C)(=O)=O)c3)CC2)n(-c2ccccc2)n1` [Example E26, [4-(3-Methanesulfonylphenyl)piperazin-1-yl](5-methyl-2-phenyl-2H-pyrazol-3-yl)methanone], for which the pIC50 was 5.19 in assay [1] and 6.87 in assay [2].
As to `CNc1cccc(N2CCN(C(=O)c3cc(C)nn3-c3ccccc3)CC2)c1` [Example E34, [4-(3-Methylaminophenyl)piperazin-1-yl](5-methyl-2-phenyl-2H-pyrazol-3-yl)-methanone], the values for the pIC50 in assay [1] and in assay [2] were 6.10 and 7.85, respectively.
With `Cc1cc(C(=O)N2CCN(c3ccccc3C)CC2)n(-c2ccccc2)n1` [3/42], the results for the pIC50 in assay [1] and in assay [2] were 5.30 and 7.07, respectively.
On to `Cc1cc(C(=O)N2CCN(c3ccc(F)cc3)CC2)n(-c2cccc(F)c2)n1` [3/92], for which the pIC50 in assay [1] was 4.90; in assay [2], 6.80.
On the same counts, the results for `Cc1cc(C(=O)N2CCN(c3nccs3)CC2)n(-c2ccccc2)n1` [Example E115] are more than 4.60 and 5.49.
For `Cc1cccc(N2CCN(C(=O)c3cc(C)nn3-c3ccccc3)CC2C)c1` (stereo not shown) [3/109], the pIC50 was 5.10 in assay [1] and 5.36 in assay [2].
The matching figures for `CSc1ccccc1N1CCN(C(=O)c2cc(C)nn2-c2ccc(F)cc2)CC1` [3/58]: 5.35 and 5.40.
As to `COc1cc(OC)cc(N2CCN(C(=O)c3cc(C=O)nn3-c3ccccc3)CC2)c1` [Example E100, 5-[4-(3,5-Dimethoxyphenyl)piperazine-1-carbonyl]-1-phenyl-1H-pyrazole-3-carboxaldehyde], the pIC50 in assay [1] was 6.30; in assay [2], 8.39.
On the same counts, the results for `Cc1cc(C(=O)N2CCN(c3cccc(Cl)c3)CC2)n(-c2ccccc2F)n1` [3/37] are 4.70 and 5.84.
As for `Cc1cccc(N2CCN(C(=O)c3cc(C)nn3-c3cccc(F)c3)CC2)c1` [3/19], the pIC50 in assay [1] is 5.74; in assay [2], 7.77.
The matching figures for `O=C(c1cc(CO)nn1-c1ccccc1)N1CCN(c2cccc(Cl)c2)CC1` [Example E60, (5-Hydroxymethyl-2-phenyl-2H-pyrazol-3-yl)[4-(3-chlorophenyl)piperazin-1l-yl]methanone]: 5.86 and 7.93.
On the same counts, the results for `COc1cccc(-n2nc(C)cc2C(=O)N2CCN(c3cccc4ccccc34)CC2)c1` [3/138] are more than 4.60 and 4.70.
The matching figures for `COc1cccc(N2CCN(C(=O)c3cc(C)nn3-c3cccc(OC)c3)CC2)c1` [3/82]: 5.92 and 8.08.
As to `Cc1cc(C(=O)N2CCN(c3cccc(Cl)c3)CC2)n(-c2nccs2)n1` [Example E37, [4-(3-Chlorophenyl)piperazin-1-yl](5-methyl-2-thiazol-2-yl-2H-pyrazol-3-yl)-methanone], the results for the pIC50 in assay [1] and in assay [2] were 5.70 and 7.42, respectively.
Consider `Cc1cc(C(=O)N2CCN(c3cccc(C)c3C)CC2)n(-c2ccc(F)cc2)n1` [3/148], for which the pIC50 was 5.82 in assay [1] and 6.70 in assay [2].
On the same counts, the results for `COc1cc(OC)cc(N2CCN(C(=O)c3cc(N)nn3-c3ccccc3)CC2)c1` [Example E99, (5-Amino-2-phenyl-2H-pyrazol-3-yl)[4-(3,5-dimethoxyphenyl)piperazin-1-yl]methanone] are 6.00 and 8.62.
The matching figures for `Cc1cccc(N2CCN(C(=O)c3cc(C)nn3-c3ccccc3)CC2)n1` [3/150]: 5.96 and 8.26.
On the same counts, the results for `Cc1cc(C(=O)N2CCN(c3cccc(Cl)c3)CC2)n(-c2ccc(F)cc2)n1` [3/38] are 5.22 and 6.47.
Consider `Cc1cc(C(=O)N2CCN(c3cccc(Cl)c3Cl)CC2)n(-c2ccccc2)n1` [3/36], for which the pIC50 was 5.74 in assay [1] and 6.92 in assay [2].
On the same counts, the results for `Cc1cc(C(=O)N2CCN(c3cccc(C(C)O)c3)CC2)n(-c2ccccc2)n1` (stereo not shown) [Example E39, {4-[3-(1-Hydroxyethyl)phenyl]piperazin-1-yl}(5-methyl-2-phenyl-2H-pyrazol-3-yl)methanone hydrochloride] are 5.60 and 7.14.
The matching figures for `Cc1cccc(N2CCN(C(=O)c3cc(C)nn3-c3cccc(Cl)c3)CC2)c1` [3/123]: 5.48 and 7.29.
On the same counts, the results for `O=C(c1cc(Br)nn1-c1ccccc1)N1CCN(c2cccc(Cl)c2)CC1` [Example E65, (5-Bromo-2-phenyl-2H-pyrazol-3-yl)[4-(3-chlorophenyl)piperazin-1-yl]-methanone] are 5.77 and 7.97.
For the molecule `COc1cccc(-n2nc(C)cc2C(=O)N2CCN(c3cccc(C)c3)CC2)c1` [3/3], the pIC50 was 5.74 in assay [1] and 7.06 in assay [2].
On the same counts, the results for `Cc1cc(C(=O)N2CCN(c3ccccc3)CC2)n(-c2ccc(F)cc2)n1` [3/101] are 5.30 and 6.24.
The matching figures for `Cc1cc(C(=O)N2CCN(c3cccc(Cl)c3)CC2)n(-c2ccc(F)cc2F)n1` [Example E42, [4-(3-Chlorophenyl)piperazin-1-yl][2-(2,4-difluorophenyl)-5-methyl-2H-pyrazol-3-yl]methanone]: 5.68 and 7.30.
On the same counts, the results for `Cc1cc(C(=O)N2CCN(c3cccc(NCCO)c3)CC2)n(-c2ccccc2)n1` [Example E103, {4-[3-(2-Hydroxyethylamino)phenyl]piperazin-1-yl}-(5-methyl-2-phenyl-2H-pyrazol-3-yl)methanone] are 6.00 and 7.78.
For `Cc1cc(C(=O)N2CCN(c3cccc(Cl)c3)CC2)n(-c2cc(Cl)ccc2Cl)n1` [Example E44, [4-(3-Chlorophenyl)piperazin-1-yl][2-(2,5-dichlorophenyl)-5-methyl-2H-pyrazol-3-yl]methanone], the pIC50 in assay [1] was 5.77; in assay [2] it was 6.63.
`COc1cc(OC)cc(N2CCN(C(=O)c3cc(C(F)(F)F)nn3-c3cccc(C#N)c3)CC2)c1` [Example E56, 3-{5-[4-(3,5-Dimethoxyphenyl)piperazine-1-carbonyl]-3-trifluoromethylpyrazol-1-yl}benzonitrile]: the pIC50 in assay [1] was 5.96; in assay [2] it was 6.84.
In the case of `Cc1ccc(-n2nc(C)cc2C(=O)N2CCN(c3ccc(Cl)c(Cl)c3)CC2)cc1` [3/76], the pIC50 in assay [1] is 5.52; in assay [2] it was 5.97.
The matching figures for `Cc1cc(C(=O)N2CCN(c3ccccc3C(F)(F)F)CC2)n(-c2ccccc2)n1` [3/84]: 5.26 and 6.75.
On to `COc1cccc(-n2nc(C)cc2C(=O)N2CCN(c3cc(Cl)ccc3C)CC2)c1` [3/4], for which the pIC50 in assay [1] was 5.74; in assay [2], 6.41.
The matching figures for `Cc1cccc(-n2nc(C)cc2C(=O)N2CCN(c3cccc(C(F)(F)F)c3)CC2)c1` [3/46]: 5.10 and 6.71.
The matching figures for `Cc1cc(C(=O)N2CCN(c3cccc(Cl)c3Cl)CC2)n(-c2ccc(Cl)cc2)n1` [3/129]: more than 4.60 and 5.59.
As for `COc1ccccc1N1CCN(C(=O)c2cc(C)nn2-c2cccc(C)c2)CC1` [3/45], the pIC50 in assay [1] was 5.52; in assay [2] it was 7.14.
The matching figures for `Cc1cc(C(=O)N2CCN(c3cccc(Cl)c3Cl)CC2)n(-c2cccc(F)c2)n1` [3/99]: 5.70 and 7.39.
